{"source": "patent US10307404B1", "about": "“Ocular formulations for drug-delivery to the posterior segment of the eye” (priority 2013, dated 2019)", "test": "PK of topical ocular sodium phosphate-based Gel Drop, concentrations 1 hour after last dose", "type": "in vivo, Dutch-belted rabbits", "settings": "Dutch-belted, rabbit", "from_the_text": "The Gel Drop of Compound-I was applied to eyes of Dutch-belted rabbits.", "note": "Read-outs that look alike come from different tables or passages of the source.", "data": [{"compound": "Cl.NC(=O)c1c(OCc2c(F)cc(Br)cc2F)nsc1NC(=O)NCCCCN1CCCC1", "note": "[Compound-I, 3-[(4-bromo-2,6-difluorophenyl)methoxy]-5-[[[[4-(1-pyrrolidinyl)butyl]amino]carbonyl]amino]-4-isothiazolecarboxamide hydrochloride]", "values": [{"measurement": "concentration at 1 h", "setting": "AH (aqueous humor), 2 mg/ml, pH 6, 2 mg/ml pH 6 BAK 0.005% Gly 2% Osmo 232, 3x/day 5 days, read-out: Mean [AH]", "value": 30, "unit": "nM"}, {"measurement": "concentration at 1 h", "setting": "AH (aqueous humor), 2 mg/ml, pH 6, 2 mg/ml pH 6.0 Phos 0.02% BAK 0.005% Gly 2% PS80 1% Tylox 0.2%, 3x/day 5 days, read-out: Mean [AH]", "value": 13.8, "unit": "nM"}, {"measurement": "concentration at 1 h", "setting": "AH (aqueous humor), 2 mg/ml, pH 6, 2 mg/ml pH 6 Phos 0.05% BAK 0.005% Gly 2% PS80 1% Osmo 261, 3x/day 5 days, read-out: Mean [AH]", "value": 25.5, "unit": "nM"}, {"measurement": "concentration at 1 h", "setting": "AH (aqueous humor), 2 mg/ml, pH 6, 2 mg/ml pH 6.0 Phos 0.05% BAK 0.005% Gly 2%, 3x/day 5 days, read-out: Mean [AH]", "value": 32.2, "unit": "nM"}, {"measurement": "concentration at 1 h", "setting": "AH (aqueous humor), 2 mg/ml, pH 6, 2 mg/ml pH 6.0 Phos 0.2% BAK 0.005% Gly 2%, 3x/day 5 days, read-out: Mean [AH]", "value": 14.8, "unit": "nM"}, {"measurement": "concentration at 1 h", "setting": "AH (aqueous humor), 4 mg/ml, pH 6, 4 mg/ml pH 6.0 Phos 0.2% BAK 0.005% Gly 2%, 3x/day 5 days, read-out: Mean [AH]", "value": 25, "unit": "nM"}, {"measurement": "concentration at 1 h", "setting": "AH (aqueous humor), 4 mg/ml, pH 6, 4 mg/ml pH 6.0 Phos 2% BAK 0.005% Gly 2% PS80 1% Tylox 0.2%, 3x/day 5 days, read-out: Mean [AH]", "value": 21.1, "unit": "nM"}, {"measurement": "concentration at 1 h", "setting": "AH (aqueous humor), 6 mg/ml, pH 5.9, 6 mg/ml pH 5.9 Phos 0.05% BAK 0.005% Gly 2% PS80 1% Tylox 0.1% Polox 0.2% Osmo 270, 3x/day 4 days, read-out: Mean [AH]", "value": 222, "unit": "nM"}, {"measurement": "concentration at 1 h", "setting": "AH (aqueous humor), 6 mg/ml, pH 5.9, 6 mg/ml pH 5.9 Phos 0.1% BAK 0.005% Gly 2% Polox 0.2% Osmo 257, 3x/day 4 days, read-out: Mean [AH]", "value": 55.4, "unit": "nM"}, {"measurement": "concentration at 1 h", "setting": "aqueous humor (AH), 1 mg/ml, pH 6, 1 mg/ml pH 6 BAK 0.005% Gly 2% Osmo 234, 3x/day 5 days, read-out: Mean [AH]", "value": 17.1, "unit": "nM"}, {"measurement": "concentration at 1 h", "setting": "aqueous humor (AH), 1 mg/ml, pH 6, 1 mg/ml pH 6.0 Phos 0.05% BAK 0.005% Gly 2% PS80 0.01% Tylox 0.2%, 3x/day 5 days, read-out: Mean [AH]", "value": 9.09, "unit": "nM"}, {"measurement": "concentration at 1 h", "setting": "aqueous humor (AH), 1 mg/ml, pH 6, 1 mg/ml pH 6 Phos 0.05% BAK 0.005% Gly 2%, 3x/day 5 days, read-out: Mean [AH]", "value": 16.4, "unit": "nM"}, {"measurement": "concentration at 1 h", "setting": "aqueous humor (AH), 1 mg/ml, pH 6, 1 mg/ml pH 6.0 Phos 0.2% BAK 0.005% Gly 2% PS80 1% Tylox 0.2%, 3x/day 5 days, read-out: Mean [AH]", "value": 6.27, "unit": "nM"}, {"measurement": "concentration at 1 h", "setting": "aqueous humor (AH), 1 mg/ml, pH 6, 1 mg/ml pH 6.0 Phos 0.2% BAK 0.005% Gly 2%, 3x/day 5 days, read-out: Mean [AH]", "value": 20.6, "unit": "nM"}, {"measurement": "concentration at 1 h", "setting": "aqueous humor (AH), 2 mg/ml, pH 6, 2 mg/ml pH 6 Phos 0.05% BAK 0.005% Gly 2% Osmo 244, 3x/day 5 days, read-out: Mean [AH]", "value": 27.8, "unit": "nM"}, {"measurement": "concentration at 1 h", "setting": "aqueous humor (AH), 2 mg/ml, pH 6, 2 mg/ml pH 6.0 Phos 0.05% BAK 0.005% Gly 2% PS80 1% Tylox 0.2%, 3x/day 5 days, read-out: Mean [AH]", "value": 18.2, "unit": "nM"}, {"measurement": "concentration at 1 h", "setting": "aqueous humor (AH), 2 mg/ml, pH 6, 2 mg/ml pH 6.0 Phos 0.1% BAK 0.005% Gly 2%, 3x/day 5 days, read-out: Mean [AH]", "value": 18.9, "unit": "nM"}, {"measurement": "concentration at 1 h", "setting": "aqueous humor (AH), 2 mg/ml, pH 6, 2 mg/ml pH 6 Phos 0.2% BAK 0.005% Gly 2% Osmo 257, 3x/day 5 days, read-out: Mean [AH]", "value": 29.5, "unit": "nM"}, {"measurement": "concentration at 1 h", "setting": "aqueous humor (AH), 2 mg/ml, pH 6, 2 mg/ml pH 6 Phos 0.2% BAK 0.005% Gly 2% PS80 1% Osmo 281, 3x/day 5 days, read-out: Mean [AH]", "value": 19.7, "unit": "nM"}, {"measurement": "concentration at 1 h", "setting": "aqueous humor (AH), 2 mg/ml, pH 6.1, 2 mg/ml pH 6.1 Phos […] Osmo 34, 3x/day 4 days, read-out: Mean [AH]", "value": 13.7, "unit": "nM"}, {"measurement": "concentration at 1 h", "setting": "choroid, 1 mg/ml, pH 6, 1 mg/ml pH 6 BAK 0.005% Gly 2% Osmo 234, 3x/day 5 days, read-out: MEAN [choroid]", "value": 359, "unit": "nM"}, {"measurement": "concentration at 1 h", "setting": "choroid, 1 mg/ml, pH 6, 1 mg/ml pH 6 BAK 0.005% Gly 2% PS80 1% Tylox 0.1% Polox 0.2% Osmo 237, 3x/day 5 days, read-out: MEAN [choroid]", "value": 339, "unit": "nM"}, {"measurement": "concentration at 1 h", "setting": "choroid, 1 mg/ml, pH 6, 1 mg/ml pH 6.0 Phos 0.05% BAK 0.005% Gly 2% PS80 0.01% Tylox 0.2%, 3x/day 5 days, read-out: MEAN [choroid]", "value": 295, "unit": "nM"}, {"measurement": "concentration at 1 h", "setting": "choroid, 1 mg/ml, pH 6, 1 mg/ml pH 6 Phos 0.05% BAK 0.005% Gly 2%, 3x/day 5 days, read-out: MEAN [choroid]", "value": 398, "unit": "nM"}, {"measurement": "concentration at 1 h", "setting": "choroid, 1 mg/ml, pH 6, 1 mg/ml pH 6.0 Phos 0.2% BAK 0.005% Gly 2% PS80 1% Tylox 0.2%, 3x/day 5 days, read-out: MEAN [choroid]", "value": 423, "unit": "nM"}, {"measurement": "concentration at 1 h", "setting": "choroid, 1 mg/ml, pH 6, 1 mg/ml pH 6.0 Phos 0.2% BAK 0.005% Gly 2%, 3x/day 5 days, read-out: MEAN [choroid]", "value": 519, "unit": "nM"}, {"measurement": "concentration at 1 h", "setting": "choroid, 1 mg/ml, pH 6.1, 1 mg/ml pH 6.1 BAK 0.005% Gly 2% Osmo 230, 3x/day 5 days, read-out: MEAN [choroid]", "value": 537, "unit": "nM"}, {"measurement": "concentration at 1 h", "setting": "choroid, 2 mg/ml, pH 5.9, 2 mg/ml pH 5.9 Phos 0.05% BAK 0.005% Gly 2% Osmo 233, 3x/day 5 days, read-out: MEAN [choroid]", "value": 362, "unit": "nM"}, {"measurement": "concentration at 1 h", "setting": "choroid, 2 mg/ml, pH 6, 2 mg/ml pH 6 BAK 0.005% Gly 2% Osmo 232, 3x/day 5 days, read-out: MEAN [choroid]", "value": 589, "unit": "nM"}, {"measurement": "concentration at 1 h", "setting": "choroid, 2 mg/ml, pH 6, 2 mg/ml pH 6.0 Phos 0.02% BAK 0.005% Gly 2% PS80 1% Tylox 0.2%, 3x/day 5 days, read-out: MEAN [choroid]", "value": 599, "unit": "nM"}, {"measurement": "concentration at 1 h", "setting": "choroid, 2 mg/ml, pH 6, 2 mg/ml pH 6 Phos 0.05% BAK 0.005% Gly 2% Osmo 244, 3x/day 5 days, read-out: MEAN [choroid]", "value": 422, "unit": "nM"}, {"measurement": "concentration at 1 h", "setting": "choroid, 2 mg/ml, pH 6, 2 mg/ml pH 6 Phos 0.05% BAK 0.005% Gly 2% PS80 1% Osmo 261, 3x/day 5 days, read-out: MEAN [choroid]", "value": 559, "unit": "nM"}, {"measurement": "concentration at 1 h", "setting": "choroid, 2 mg/ml, pH 6, 2 mg/ml pH 6.0 Phos 0.05% BAK 0.005% Gly 2%, 3x/day 5 days, read-out: MEAN [choroid]", "value": 528, "unit": "nM"}, {"measurement": "concentration at 1 h", "setting": "choroid, 2 mg/ml, pH 6, 2 mg/ml pH 6.0 Phos 0.1% BAK 0.005% Gly 2%, 3x/day 5 days, read-out: MEAN [choroid]", "value": 525, "unit": "nM"}, {"measurement": "concentration at 1 h", "setting": "choroid, 2 mg/ml, pH 6, 2 mg/ml pH 6 Phos 0.2% BAK 0.005% Gly 2% PS80 1% Osmo 281, 3x/day 5 days, read-out: MEAN [choroid]", "value": 357, "unit": "nM"}, {"measurement": "concentration at 1 h", "setting": "choroid, 2 mg/ml, pH 6, 2 mg/ml pH 6.0 Phos 0.2% BAK 0.005% Gly 2%, 3x/day 5 days, read-out: MEAN [choroid]", "value": 532, "unit": "nM"}, {"measurement": "concentration at 1 h", "setting": "choroid, 2 mg/ml, pH 6.1, 2 mg/ml pH 6.1 BAK 0.005% Gly 2% Osmo 229, 3x/day 5 days, read-out: MEAN [choroid]", "value": 462, "unit": "nM"}, {"measurement": "concentration at 1 h", "setting": "choroid, 2 mg/ml, pH 6.1, 2 mg/ml pH 6.1 Phos 0.05% BAK 0.005% Gly 2% PS80 1% Tylox 0.1% Osmo 239, 3x/day 5 days, read-out: MEAN [choroid]", "value": 660, "unit": "nM"}]}]}
